Source: patent US10323283B2, “Editing profiling of PDE8A pre-mRNA: use as specific biomarker of ADARs activities in human tissues to diagnose and to predict and assess therapeutic efficacy and/or efficiency or potential drug side effects” (ALCEDIAG, priority 2010, dated 2019)

Legend:
Assay type in all cases: cell-based, human
[1] = system: ADAR1a-p150; test: Quantification of ADAR1a-p150 mRNA expression by real-time PCR in SH-SY5Y cells; settings: IFNα application during 24 hours
Procedure: (§1) The SH-SY5Y Human neuroblastoma cell line was purchased from ECACC (ref 94030304, lot number 06H021). Cells were cultured in high glucose D-MEM medium (Sigma, ref D6546) supplemented with 10% dialysed FCS (PAA, ref A15-507, lot number A50708-0050), 2 mM Glutamine (Sigma, G7513) and a 1× mix of Antibiotic-Antimycotic Stabilized (Sigma, ref A5955) at 37° C. under a humidified atmosphere of 5% CO2. The day preceding hIFNα treatment, SH-SY5Y cells were plated in 8 different 6-well plates at a density of 7.10^5 cells/well. […]
In order to quantify levels of ADAR1a mRNA expression in SH-SY5Y cells first-strand cDNA was synthesized by reverse transcription (as described above) and subjected to TaqMan quantitative Real-Time PCR analysis (Applied Biosystems,). The probe and primers used for the quantitative PCRs were from Applied Biosystems (Gene Expression Assays, Assay-On-Demand): • -ADAR1a: ref Hs 01020780_ml
Human GAPDH (product no. 4326317E; Applied Biosystems) was included in each multiplex PCR as an internal control. […] Quantitation of target gene expression in all samples was normalized to GAPDH expression by the equation Ct (target)−Ct (GAPDH)=ΔCt, where Ct is the threshold cycle number. The mean ΔCt value of samples from untreated cells was determined and used as a reference point for the samples corresponding to IFNα treated cells. […]

[2] = system: PDE8A pre-mRNA; test: PDE8A pre-mRNA editing profile by nested RT-PCR and CE-SSCP in SH-SY5Y cells; settings: increased concentrations of IFNα, 48 hours
Procedure: The SH-SY5Y Human neuroblastoma cell line was purchased from ECACC (ref 94030304, lot number 06H021). Cells were cultured in high glucose D-MEM medium (Sigma, ref D6546) supplemented with 10% dialysed FCS (PAA, ref A15-507, lot number A50708-0050), 2 mM Glutamine (Sigma, G7513) and a 1× mix of Antibiotic-Antimycotic Stabilized (Sigma, ref A5955) at 37° C. under a humidified atmosphere of 5% CO2. The day preceding hIFNα treatment, SH-SY5Y cells were plated in 8 different 6-well plates at a density of 7.10^5 cells/well. On the next day, culture medium was removed and cells were incubated for 48 hours with hIFNα at the correct concentration (PBL biomedical laboratories, ref 111001-1, lot number 3734). On the day of the experiment, the hIFNα stock solution (10^5 I.U/ml in sterile 1×D-PBS stocked at −80° C.) was thawed on ice and then extemporaneously diluted in D-MEM supplemented with FCS and Antibiotic-Antimycotic, at the final concentrations of […]. In each well, cells were treated with 2 ml of the working solution. Aliquots of the stock-solution were used only once. […]
Human total blood RNA was extracted with the PAXgene Blood RNA kit 50 (PreAnalytiX, ref 762174) according to manufacturer's instructions. […] Aliquots (5 μl) of the amplification products were used to check the quantity and the quality of amplicons on a 2% agarose analytic gel. […]

[3] = system: PDE8A4 isoform of the protein; test: Western blot analysis of PDE8A protein concentrations in SH-SY5Y cells after IFNα; settings: IFNα application during 24 hours
Procedure: as §1
After culture medium elimination, SH-SY5Y cells were washed two times with a phosphate buffer solution (PBS, Gibco Invitrogen Corporation), scraped and solubilized for 2 hr at 4° C. in solubilization buffer containing 150 mM NaCl, 5 mM EDTA, 1% Triton X-100, 0.1% sodium deoxycholate, 10 mM Tris-HCl [pH 8.0] and supplemented with protease inhibitors (1 mM phenylmethylsulfonyl fluoride, and one tablet of Complete™ mini protease inhibitors cocktail [Roche]). […] Proteins present in the supernatant (clear lysate) were quantified with a Qubit Fluorometer (Invitrogen, Q32857) and the Quant-IT Protein assay (Invitrogen, ref Q33211). […]

estimated EC 50% of the effect on PDE8A4 isoform concentration versus concentrations of IFNα ([3]; western blot, ±SD, R^2 of the fit=0.7): 3.3±4.4 IU/ml
Substance: interferon alpha [IFNα]
RQ versus GAPDH of the ADAR1a-p150 [1]: induced | proportions of isoform B in the editing profile of PDE8A RNA [2]: relative increase | maximal effect on PDE8A4 isoform, % of the steady state concentration found in controls ([3]; from best fit): −47%
